# According to article PMC5947712, “High‐Throughput Kinetic Analysis for Target‐Directed Covalent Ligand Discovery” (Angewandte Chemie (International Ed. in English), 2018):
# Assays:
# Cdk2 = target: T1, Cdk2 (Homo sapiens, UniProt P24941); experiment: In-cell target engagement: CuAAC biotin tagging, Neutravidin pulldown, anti-Cdk2 western blot; format: cell-based; conditions: HeLa cells, 6 hours treatment
# T1 construct: endogenous in cells; host or cells: HeLa
# Experimental: (§1) To evaluate whether this in vitro activity would translate into in‐cell target engagement, acrylamide 3 (REFCdk2(WT)=5.6, k GSH=0.033 h^−1, k Cdk2(WT)=0.185 h^−1) was synthesized as a target engagement probe, containing an alkyne handle for bio‐orthogonal ligation. HeLa cells were treated with probe 3 and protein lysates subjected to copper(I) catalyzed azide–alkyne cycloaddition (CuAAC)30 to affect biotin conjugation.
# (§2) Figure 7 HeLa cells were treated with 3 for 6 hours. After tagging with biotin‐azide, Neutavidin pulldown was performed. Western blot analysis (anti‐Cdk2 and Cdk1) was performed before (Lysate) and after pulldown (PD).
# (§3) 100Rfold! dilution! gave! the! optimum! seed! concentration! for! subsequent! crystallization.!Ligand" conjugated" Cdk2:!Crystallisation!
# (§4) was! performed! by! mixing! 1! µL! of! labelled! Cdk2! solution! (8! mg! mLR1,! 100! mM! phosphate! buffer)! with! 0.5! µL! of! reservoir! soluR
# (§5) tion! (Jeffamine! EDR2003! concentration! range! 18!R!30%! w/v,! 100! mM! HEPES,! pH! range! 7.5!–!8.5)! and! 0.5! µL! diluted! apoR
# (§6) Cdk2(WT)!microseed!stock.!For!labelled!Cdk2(WT),!crystals!appeared!within!2–3!days!and!grew!for!another!10–14!days.!
# (§7) L.,Molecular,dynamics,simulation, […]
# (§8) maps!were!calculated!using!FFT[20]!and!figures!were!prepared!using!PyMol!(Schrödinger).! […]
# (§9) Phosphorylation! of! […] Cdk2! during! gel! electrophoresis! and! the! reaction! was! monitored! by! […]
# Cdk1 = target: T2, Cdk1 (Homo sapiens, UniProt P06493); experiment: In-cell target engagement: CuAAC biotin tagging, Neutravidin pulldown, anti-Cdk1 western blot; format: cell-based; conditions: HeLa cells, 6 hours treatment
# T2 construct: endogenous in cells; host or cells: HeLa
# Experimental: as §1, §2, §3, §4, §5, §6, §7, §8, §9
# Cdk2(WT) = Cdk2(WT) (Homo sapiens, UniProt P24941); experiment: qIT thiol consumption assay with Cdk2(WT) (Cys177); format: binding; design: made in house; host or cells: E. coli Tuner(DE3)
# [1] = qIT (quantitative irreversible tethering) thiol consumption assay with glutathione; conditions: compound 0.5 mM, glutathione 5 μM, TCEP-agarose 2 % w/v
# Experimental: To measure the kinetics of electrophile‐thiol conjugation we developed quantitative irreversible tethering (qIT), a technique which employs fluorogenic thiol quantification (FTQ) in a high‐throughput thiol consumption assay (Figure 1 a). […] We solved this problem using an immobilized reducing agent (TCEP‐agarose, 2 % w/v), allowing facile separation by centrifugation before conducting the FTQ step (Figure 1 b).
# The target thiol (5 μM) is reacted with electrophilic fragments (0.5 mM) under pseudo‐first‐order conditions in the presence of TCEP‐agarose (2 % w/v). Reaction progress is followed by discrete measurements of residual target thiol concentration using the fluorogenic probe CPM and rate constants are derived from exponential regression analysis. b) TCEP‐agarose prevents aerobic thiol oxidation. Glutathione solutions were stored ±TCEP‐agarose (2 % w/v).
# Electrophiles were individually reacted with glutathione under pseudo‐first‐order conditions in the presence of TCEP‐agarose. […] Fluorescence measurements were normalized against a DMSO control and exponential regressions used to determine rate constants.
# ReactionBplate" setup:!Each! well! of! a! 96Rwell! PCR! plate! was! charged! with! 60–100! µL! of! target! thiol! (GSH! or! protein,! 10! µM)!
# and! 4%! w/v! TCEPRagarose! beads! in! 100! mM! phosphate! buffer! (pH! 7.5! or! 8)! and! cooled! to! 4! ˚C.! Reactions! were! started! by!
# addition! of! an! equal! volume! of! preRcooled! electrophile! solution! (1! mM,! 2%! DMSO)! in! 0.1! M! phosphate! buffer! (final! concentraR
# tion:! thiol! =! 5! µM,! electrophile! =! 0.5! mM,! 2%! w/v! TCEPRagarose! beads),! with! a! minimum! of! 4! wells! per! plate! used! as!
# DMSO/thiol! only! controls.! After! mixing,! TCEPRagarose! was! pelleted! by! centrifugation! (1,300! rpm,! 1! min)! and! the! plate! incuR
# bated!at!4!˚C.,CPM"Quench:! At! a! series! of! time! points!
# T2 sequence (P06493 whole entry): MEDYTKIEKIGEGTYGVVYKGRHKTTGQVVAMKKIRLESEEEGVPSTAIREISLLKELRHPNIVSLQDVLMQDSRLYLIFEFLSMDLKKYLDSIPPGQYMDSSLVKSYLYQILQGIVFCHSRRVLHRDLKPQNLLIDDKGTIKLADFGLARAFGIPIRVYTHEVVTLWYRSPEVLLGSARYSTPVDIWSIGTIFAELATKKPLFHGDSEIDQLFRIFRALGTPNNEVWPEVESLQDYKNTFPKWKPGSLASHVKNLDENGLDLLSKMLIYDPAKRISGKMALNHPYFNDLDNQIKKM
structure (smiles),measurement,setting,value
C#CCNC(=O)N1CCN(C(=O)C=C)c2ccccc21 [Acrylamide 3],enrichment of Cdk2 after pull-down (western blot),Cdk2,concentration‐dependent enrichment
same,isolation of Cdk1 after pull-down (western blot),Cdk1,not isolated
same,k Cdk2(WT) (pseudo-first-order rate constant),"Cdk2(WT); compound 0.5 mM, Cdk2(WT) 5 μM, TCEP-agarose 2 % w/v",0.185 h⁻¹
same,REF Cdk2(WT) (rate enhancement factor = k protein/k GSH),Cdk2(WT); k Cdk2(WT)/k GSH,5.6
same,k GSH (pseudo-first-order rate constant),[1],0.033 h⁻¹
